US9233095B2, “Small molecule RNase inhibitors and methods of use” (University of Rochester, priority 2011, dated 2016)
Several values for one entry are separate records, joined by “and”; a condition that tells them apart may be missing. Equal values may be shown once.

How the values were obtained:
[1] = test system: HepG2 human hepatocytes; assay: MTT cytotoxicity assay; format: cell-based; details: for HepG2 cell toxicity: 24 hr exposure, any concentration tested (25, 50 μg/ml); for HepG2 cytotoxicity: 48 hr exposure
Experimental: It was then assessed whether RnpA-inhibitory agent concentrations corresponding to the effective bacterial MIC values (10-50 μg/ml) elicited human cell cytotoxicity. HepG2 human hepatocytes (10^5 cells) were seeded in individual wells of a microtitre plate and incubated for 16 hr at 37° C. with 5% carbon dioxide in Dulbecco's Modified Eagle Media supplemented with 10% fetal bovine serum. Cells were then challenged with Mitomycin C (5 μg/ml; positive control) or 0, 25, or 50 μg/ml RNPA1000 for either 24 or 48 hrs. Cell viability was measured spectrophotometrically (570 nm) following the addition and subsequent reduction of tetrazolium salt (MTT) within metabolically active cells, as per the manufacturer's recommendations (American Type Culture Collection; Manassas, Va.).

[2] = test system: S. aureus strain Smith; assay: acute lethal model of infection; format: in vivo, CD-1 mice; details: for % Survival: 5 days, one value per experiment
Experimental: Because RNPA1000 was not toxic during short- and only mildly toxic during extended-HepG2 exposure, it could serve as an appropriate tool to assess whether RnpA-inhibitory molecules are efficacious in a systemic mouse infection model. […] RNPA1000 was solubilized in 1:1 mixture of DMSO and PEG400; Vancomycin was prepared in water. Animals (5/dose group) were administered 16, 64, and 256 mg/kg or 0.25, 1, 4, and 16 mg/kg of RNPA1000 or Vancomycin, respectively, at 30 min post infection by subcutaneous injection (0.2 ml). The percent surviving animals receiving no treatment, a single dose of Vancomycin, or RnpA-inhibitor was recorded daily over the course of the study (5 days).
Percent survival refers to a consensus of surviving animals following 5 days post-intraperitoneal S. aureus injection and RNPA1000 administration. The number in parentheses indicates the number of times the experiment was repeated. Each member of non-treated control mice expired within 24 hr bacterial inoculation (0 mg/kg). Vancomycin served as a positive control.

[3] = test system: biofilm-associated S. aureus strain UAMS-1; assay: in vitro catheter biofilm assay; format: cell-based
Experimental: To determine this, in vitro biofilm assays were performed as described in Weiss et al., Antimicrob Agents Chemother, 53: 2475-2482 (2009). Briefly, 1 cm segments of 14-gauge fluorinated ethylene propylene Introcan Safety Catheters (B. Braun, Bethlehem, Pa.) were coated with human plasma and placed in individual wells of a 12-well microtiter plate containing 2 ml biofilm medium and S. aureus strain UAMS-1 at a final OD600 nm of 0.05. Following overnight incubation at 37° C. catheters were removed, rinsed in phosphate buffered saline (PBS), and transferred to fresh biofilm medium containing 0, 5, 10, or 20 times the S. aureus MIC for RNPA1000. Catheters exposed to each dose (n=3) were recovered daily over a period of 3 days, with the medium being replaced each day. After each recovery time point catheters were rinsed in PBS and adherent bacteria were enumerated by sonication and plating. Analysis of variance (ANOVA) of logarithmically-transformed bacterial count data was used to evaluate the effect of RNPA1000 exposure.

[4] = test system: S. aureus RN4220; assay: microdilution MIC of RnpA over- and under-producing cells; format: cell-based; details: Staphylococcus aureus, 2.5 μM CdCl2
Experimental: With the exception of RN4220-derivatives, in vitro activities of RNPA1000 against bacteria were determined by the broth microdilution method according to the Clinical and Laboratory Standards Institute (CLSI) guidelines using cation adjusted Mueller-Hinton broth or MH broth supplemented with 5% lysed horse blood (for testing Streptotococcus spp.). Microtiter plates containing serial dilutions of RNPA1000 (0, 4, 8, 16, 32, 64, and 128 μg/ml) were inoculated with 10^5 colony forming units (CFU)/ml and incubated for 18 hr at 37° C. […] The MIC value for each S. aureus strain was determined to be the median score of replicate measurements (n=5). Wells containing concentrations of RNPA1000≧MIC were plated for minimal bactericidal measurement. Where possible, experiments with VRSA strains were performed in a laminar flow hood to minimize potential for equipment contamination. For RN4220 cells containing plasmid vector (pCN51), RnpA overproducing plasmid (pRNPA-S) or RnpA underproducing plasmid (pRNPA-A.S.) in vitro antimicrobial activity of RNPA1000 was performed by the microdilution method as described above, except that cells were grown in Tryptic Soy Broth medium supplemented with 2.5 μM CdCl2 and 0, 1, 2, 4, 8, 16, 32, 64, or 128 μg/ml RNPA1000. Time-kill assays were also performed to monitor the antimicrobial properties of RNPA1000 for S. aureus strain UAMS-1 in the absence and presence of 0.25, 0.5, 2, and 4 times the strain's MIC for oxacillin (1 μg/ml), rifampicin (0.5 μg/ml), vancomycin (2 μg/ml), or daptomycin (1 μg/ml). […]
To assess whether the susceptibility of S. aureus to RNPA1000 was attributable to the inhibition of cellular RnpA, the mRNA turnover properties of S. aureus that were challenged with a sub-inhibitory concentration of RnpA-inhibitor (0.5× MIC) were directly measured. […] To more directly determine whether RNPA1000's antimicrobial effects are mediated through cellular inhibition of RnpA, the RNPA1000 susceptibility of S. aureus RnpA over- and under-producing cells was assessed. […]

What does the source list for Cc1cc(/C=C(/C#N)C(=O)Nc2cccc(Br)c2)c(C)n1-c1ccc(C(=O)O)cc1 [RNPA1000]?
HepG2 cell toxicity [1]: not toxic; HepG2 cell toxicity ([1]; listed as RNP1000): did not cause human HepG2 cell toxicity; HepG2 cytotoxicity ([1]; 25 μg/ml): mildly toxic; HepG2 cytotoxicity ([1]; 25 μg/ml, listed as RNP1000): mild cytotoxicity; HepG2 cytotoxicity ([1]; higher concentrations than 25 μg/ml): increased toxicity; % Survival ([2]; RNPA1000 16 mg/kg s.c. 30 min post infection): 20; 20(2) %; % Survival ([2]; RNPA1000 64 mg/kg s.c. 30 min post infection, 64 mg/kg): 40%; % Survival ([2]; RNPA1000 256 mg/kg s.c. 30 min post infection, 256 mg/kg): 60% and 40%; ED50 ([2]; Staphylococcus aureus, in Mus musculus, sc, single dose, read-out: median effective dose (ED50)): 64 to 256 mg/kg; bacterial clearance ([3]; 5, 10 or 20× MIC, up to 3 days): never achieved; decrease in bacterial burden ([3]; 5× MIC for 24 hr): 3 log; maximal reduction in biofilm-associated bacteria ([3]; up to 20× MIC, up to 3 days): 5 log; MIC ([4]; RN4220, RN4220 RnpA overproducing cells): 32 µg/mL; MIC ([4]; RN4220, RN4220 RnpA underproducing cells (antisense)): 8 µg/mL; MIC ([4]; RN4220, RN4220 vector containing cells (pCN51)): 32 µg/mL
